Reference: patent US7879846B2, “Serine hydrolase inhibitors” (Kyorin Pharmaceutical Co.., Ltd., priority 2006, dated 2011)

The compounds below were run against T1, Human sputum neutrophil elastase (Homo sapiens, UniProt P08246) (assay: Inhibitor IC50 against human neutrophil elastase (fluorogenic MeOSuc-AAPV-AMC substrate)). Settings: 20 min preincubation, read-out: HNE IC50.
T1 construct: purchased Elastin Products Co; host or cells: human sputum (natural source)
T1 sequence (P08246 30-247 limits assumed): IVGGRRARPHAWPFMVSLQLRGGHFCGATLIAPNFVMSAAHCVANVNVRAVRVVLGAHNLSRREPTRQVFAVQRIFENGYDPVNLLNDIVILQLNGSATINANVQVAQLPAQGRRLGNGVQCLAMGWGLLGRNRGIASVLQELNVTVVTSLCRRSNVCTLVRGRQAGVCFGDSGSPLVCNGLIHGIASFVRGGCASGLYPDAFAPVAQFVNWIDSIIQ
Format: biochemical
Experimental: Determination of Inhibitor IC50 Values Against Human Neutrophil Elastase
Human sputum neutrophil elastase (Elastin Products Co.) was diluted into Assay Buffer A (200 mM Tris pH 7.4, 1 mg/ml BSA) to a working concentration of 0.55 U/ml. […] DMSO alone was used as the negative control. MeOSuc-AAPV-AMC (Bachem) substrate was dissolved in DMSO to 20 mM and further diluted to 1 mM in Assay Buffer A immediately before use. Substrate was added to the elastase assay at a final concentration of 1×10^−4 M. The reaction was allowed to proceed for 20 minutes at room temperature and then quenched with acetic acid at a final concentration of 3% (v/v). […] Fluorescence intensity versus inhibitor concentration was plotted and fit to the Hill equation to quantify IC50 values.

| IC50 [nM] | SMILES |
| --- | --- |
| 61 to 150 | CCCc1cc(OC)cc2nc(-c3cccnc3N3CCN(CCOC)CC3)oc(=O)c12 [Compound 150] |
| < 15 | CCc1cc(OC)cc2nc(-c3cccnc3N3CC[C@@H](N(C)CCO)C3)oc(=O)c12 [Compound 270] |
| < 15 | CCc1cc(OC)cc2nc(-c3cccnc3N3CCN(c4cccnc4)CC3)oc(=O)c12 [Compound 240] |
| > 150 | Cc1cccc2nc(-c3cc[n+]([O-])cc3)oc(=O)c12 [Compound 6] |
| < 15 | CCc1cccc2nc(-c3cccnc3-n3cc[n+](CCCS(=O)(=O)[O-])c3)oc(=O)c12 [Compound 87] |
| 16 to 60 | CCc1cc(OC)cc2nc(-c3cccnc3N3CCN(CCNC(=O)OC(C)(C)C)CC3)oc(=O)c12 [Compound 202] |
| < 15 | CCc1cc(OC)cc2nc(-c3cccnc3N3CCC(CCN4CCOCC4)CC3)oc(=O)c12 [Compound 247] |
| < 15 | CCc1cc(OC)cc2nc(-c3cccnc3N3CCN(CC(=O)N4CCOCC4)CC3)oc(=O)c12 [Compound 197] |
| 61 to 150 | COc1cc(C(C)C)c2c(=O)oc(-c3cccnc3N3CC[N+](C)(C)CC3)nc2c1 [Compound 130] |
| < 15 | CCc1cccc2nc(-c3cccnc3N3CCC[C@H]3CN3CCCC3)oc(=O)c12 [Compound 98] |
| < 15 | CCc1cc(OC)cc2nc(-c3cccnc3N3CC4(C)CN(C)CC(C)(C3)C4O)oc(=O)c12 (stereo not drawn) [Compound 255] |
| < 15 | O=c1oc(-c2cccnc2-n2ccnc2)nc2cccc(C(F)(F)F)c12 [Compound 64] |
| 16 to 60 | CCc1cc(OC)cc2nc(-c3cccnc3N3CCC(N(C)C)CC3)oc(=O)c12 [Compound 220] |
| < 15 | CCc1cc(OC)cc2nc(-c3cccnc3N3CCC(CCN(C)C)CC3)oc(=O)c12 [Compound 248] |
| > 150 | COCCN1CCN(c2c(-c3nc4cc(OC)cc(C(C)C)c4c(=O)o3)cnn2C)CC1 [Compound 119] |
| < 15 | CCc1cc(OC)cc2nc(-c3cccnc3N3CC[N+](C)(CC4OCCO4)CC3)oc(=O)c12 [Compound 231] |
| 61 to 150 | COc1cc(C(C)C)c2c(=O)oc(-c3cccnc3N3CCCN(C)CC3)nc2c1 [Compound 122] |
| 61 to 150 | CCc1cccc2cc(-c3c[n+]([O-])ccc3Sc3ccc(Cl)cc3)oc(=O)c12 [Compound 86] |
| 16 to 60 | CCc1cc(OC)cc2nc(-c3cccnc3N3CCCC(CN4CCOCC4)C3)oc(=O)c12 (stereo not drawn) [Compound 243] |
| 61 to 150 | CCCc1cc(OC)cc2nc(-c3cccnc3N3CCN(CCN4CCOCC4)CC3)oc(=O)c12 [Compound 147] |
| < 15 | CCc1cccc2nc(-c3cccnc3N3CCN(CCOC)CC3)oc(=O)c12 [Compound 89] |
| 61 to 150 | COc1cc(C(C)C)c2c(=O)oc(-c3cccnc3N3CC[C@H](N(C)C)C3)nc2c1 [Compound 111] |
| 16 to 60 | CCc1cc(OC)cc2nc(-c3cccc(N4CCN(C)CC4)n3)oc(=O)c12 [Compound 206] |
| < 15 | CCc1cc(OC)cc2nc(-c3cccnc3N3CC[C@@H](N(CCO)CCO)C3)oc(=O)c12 [Compound 268] |
| > 150 | COc1cccc2nc(-c3cccnc3N(C)CC(=O)OCc3ccccc3)oc(=O)c12 [Compound 41] |

| IC50 [nM] | SMILES |
| --- | --- |
| < 15 | CCc1cc(OC)cc2nc(-c3cccnc3N3CC[N+](C)(C)CC3)oc(=O)c12 [Compound 229] |
| 61 to 150 | COCCN1CCN(c2ncccc2-c2nc3cc(OC)cc(C(C)C)c3c(=O)o2)CC1 [Compound 113] |
| 61 to 150 | COCCN1CCN(c2ncccc2-c2nc3cc(OC)cc(C4CC4)c3c(=O)o2)CC1 [Compound 167] |
| < 15 | CCc1cccc2nc(-c3cccnc3N3CC[N+](C)(CCOC)CC3)oc(=O)c12 [Compound 96] |
| 16 to 60 | CCOC(=O)CCN1CCN(c2ncccc2-c2nc3cc(OC)cc(CC)c3c(=O)o2)CC1 [Compound 221] |
| < 15 | CCc1cc(OC)cc2nc(-c3cccnc3N(C)CCN3CCCC3)oc(=O)c12 [Compound 237] |
| < 15 | CCc1cccc2nc(-c3cccnc3N3CCN(CCN(C)C)CC3)oc(=O)c12 [Compound 162] |
| > 150 | COc1cc(C(C)C)c2c(=O)oc(-c3cnn(C)c3N3CCN(CCN(C)C)CC3)nc2c1 [Compound 125] |
| > 150 | O=c1oc(-c2cccnc2Oc2ccccc2)nc2cc(Cl)cc(Cl)c12 [Compound 14] |
| < 15 | CCc1cc(OC)cc2nc(-c3cccnc3N3CC[C@H]([N+](C)(C)C)C3)oc(=O)c12 [Compound 232, {1-[3-(5-Ethyl-7-methoxy-4-oxo-4H-benz[d][1,3]oxazin-2-yl)-pyridin-2-yl]-pyrrolidin-3-yl}-trimethyl-ammonium acetate] |
| < 15 | CCc1cc(OC)cc2nc(-c3cccnc3N3CCC(CCN4CCCC4)CC3)oc(=O)c12 [Compound 257] |
| < 15 | C#CCN1CCN(c2ncccc2-c2nc3cccc(C(F)(F)F)c3c(=O)o2)CC1 [Compound 235] |
| 16 to 60 | CCCc1cc(OC)cc2nc(-c3cccnc3N(C)CCN(C)C)oc(=O)c12 [Compound 151] |
| 16 to 60 | CN1CCN(c2ncccc2-c2nc3cccc(C(F)(F)F)c3c(=O)o2)CC1 [Compound 63] |
| < 15 | CCc1cccc2nc(-c3cccnc3N3CCN(CCC#N)CC3)oc(=O)c12 [Compound 93] |
| < 15 | CCOC(=O)CN1CCN(c2ncccc2-c2nc3cc(OC)cc(CC)c3c(=O)o2)CC1 [Compound 196] |
| < 15 | CCc1cc(OC)cc2nc(-c3cccnc3N3CCN(CCC(=O)O)CC3)oc(=O)c12 [Compound 213] |
| > 150 | Cc1cccc2nc(-c3cccnc3-n3cc[n+](C)c3)oc(=O)c12 [Compound 65] |
| < 15 | CCc1cc(OC)cc2nc(-c3cccnc3N3CC[C@H](N4CCOCC4)C3)oc(=O)c12 [Compound 262] |
| 61 to 150 | COc1cc(C2CC2)c2c(=O)oc(-c3cccnc3N3CCN(CCN4CCOCC4)CC3)nc2c1 [Compound 168] |
| < 15 | CCc1cc(OC)cc2nc(-c3cccnc3N(C)CC3CCN(C)CC3)oc(=O)c12 [Compound 242] |
| 16 to 60 | O=c1oc(-c2cccnc2Oc2ccc(Cl)cc2)nc2cccc(Cl)c12 [Compound 25] |
| < 15 | CCc1cccc2nc(-c3cccnc3N3CC[N+](C)(C)CC3)oc(=O)c12 [Compound 95] |
| < 15 | CCc1cc(OC)cc2nc(-c3cccnc3N3CCC(N4CCOCC4)CC3)oc(=O)c12 [Compound 251] |
| < 15 | CCc1cccc2nc(-c3cccnc3N3CC[N+](C)(Cc4ccc(OC)cc4)CC3)oc(=O)c12 [Compound 102] |

| IC50 [nM] | SMILES |
| --- | --- |
| > 150 | Cc1cccc2nc(-c3cccnc3N3CCS(=O)(=O)CC3)oc(=O)c12 [Compound 62] |
| 61 to 150 | COc1cc(C2CCC2)c2c(=O)oc(-c3cccnc3N3CC[C@H](N(C)C)C3)nc2c1 [Compound 176] |
| < 15 | COc1ccc(-c2nc3cccc(C)c3c(=O)o2)c(OC)n1 [Compound 22] |
| 61 to 150 | CCCc1cc(OC)cc2nc(-c3cccnc3N3CCCN(C)CC3)oc(=O)c12 [Compound 156] |
| 61 to 150 | Cc1cccc2nc(-c3cccnc3OCCOCCOCCOCCOc3ncccc3-c3nc4cccc(C)c4c(=O)o3)oc(=O)c12 [Compound 59] |
| > 150 | O=c1oc(-c2cccs2)nc2ccccc12 [Compound 8] |
| > 150 | COC(=O)[C@H]1CCCN1c1ncccc1-c1nc2cccc(OC)c2c(=O)o1 [Compound 43] |
| < 15 | CCc1cccc2nc(-c3cccnc3N3CCC(N(C)C)C3)oc(=O)c12 (stereo not drawn) [Compound 85] |
| 16 to 60 | C#CCN1CCN(c2ncccc2-c2nc3cc(OC)cc(CC)c3c(=O)o2)CC1 [Compound 233] |
| 16 to 60 | CCc1cc(OC)cc2nc(-c3ccc(N4CCN(C)CC4)nc3)oc(=O)c12 [Compound 207] |
| > 150 | Cc1cccnc1-c1nc2cccc(C)c2c(=O)o1 [Compound 19] |
| < 15 | CCc1cccc2nc(-c3cccnc3N(C)CCN(C)C)oc(=O)c12 [Compound 154] |
| 16 to 60 | CCc1cc(OC)cc2nc(-c3cccnc3N3CCC(CN(C)C)CC3)oc(=O)c12 [Compound 246] |
| > 150 | O=c1oc(-c2ccccn2)nc2ccccc12 [Compound 17] |
| < 15 | CCc1cccc2nc(-c3cccnc3N3CC[C@H](N(C)C)C3)oc(=O)c12 [Compound 91] |
| 61 to 150 | CSc1ncccc1-c1nc2cccc(C)c2c(=O)o1 [Compound 23] |
| 16 to 60 | CCc1cc(OC)cc2nc(-c3cccnc3N3C[C@H](CNC4CC4)[C@H](F)C3)oc(=O)c12 [Compound 258] |
| < 15 | CCc1cc(OC)cc2nc(-c3cccnc3N3CCC(O)CC3)oc(=O)c12 [Compound 214] |
| 61 to 150 | COc1cc(C(C)C)c2c(=O)oc(-c3cccnc3N3CC[C@@H](N(C)C)C3)nc2c1 [Compound 110] |
| 16 to 60 | CCc1cc(OC)cc2nc(-c3cccnc3N3CCCC(N(C)C)C3)oc(=O)c12 (stereo not drawn) [Compound 212] |
| 61 to 150 | Cc1cccc2nc(-c3cccnc3OCCOCCOCCOCCO)oc(=O)c12 [Compound 57] |
| < 15 | CCc1cc(OC)cc2nc(-c3cccnc3N3CCC(N(CC)CC)C3)oc(=O)c12 (stereo not drawn) [Compound 189] |
| < 15 | CCc1cc(OC)cc2nc(-c3cccnc3N3CCN(c4ccncc4)CC3)oc(=O)c12 [Compound 252] |
| 61 to 150 | COc1cc(C2CC2)c2c(=O)oc(-c3cccnc3N3CCN(CC4CC4)CC3)nc2c1 [Compound 166] |
| < 15 | CCc1cc(OC)cc2nc(-c3cccnc3N3CCN(c4ccccn4)CC3)oc(=O)c12 [Compound 253] |
